Consider twelve compounds from ChEMBL document CHEMBL1147447, “Discovery and in vitro evaluation of potent TrkA kinase inhibitors: oxindole and aza-oxindoles” (Bioorg Med Chem Lett, 2004).

Each structure is given as a SMILES string. Calls of active or inactive are those of the source. The calls are words filed in the database; no cut-off is given here.

RAF proto-oncogene serine/threonine-protein kinase, sequence (P04049 whole entry): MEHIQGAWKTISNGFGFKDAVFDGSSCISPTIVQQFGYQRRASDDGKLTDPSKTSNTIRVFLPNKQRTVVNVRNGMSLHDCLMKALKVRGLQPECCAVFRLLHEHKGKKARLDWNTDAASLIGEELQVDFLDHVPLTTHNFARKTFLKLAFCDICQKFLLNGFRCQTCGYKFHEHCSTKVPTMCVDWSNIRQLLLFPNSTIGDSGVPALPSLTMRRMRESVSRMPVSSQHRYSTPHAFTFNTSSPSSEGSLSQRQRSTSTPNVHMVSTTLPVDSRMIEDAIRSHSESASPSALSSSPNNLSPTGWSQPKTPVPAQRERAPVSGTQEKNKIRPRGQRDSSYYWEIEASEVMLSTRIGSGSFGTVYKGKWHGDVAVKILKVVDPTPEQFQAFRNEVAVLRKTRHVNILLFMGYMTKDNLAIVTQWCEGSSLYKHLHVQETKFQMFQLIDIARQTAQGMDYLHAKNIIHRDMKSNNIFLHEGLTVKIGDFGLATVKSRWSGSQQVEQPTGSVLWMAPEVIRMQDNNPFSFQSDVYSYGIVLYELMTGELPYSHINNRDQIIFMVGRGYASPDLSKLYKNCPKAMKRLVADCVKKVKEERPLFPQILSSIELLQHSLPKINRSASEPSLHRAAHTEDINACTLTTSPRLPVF

Tested on in one experiment: not listed separately
The experiment in a line: Inhibition prostate cancer growth in 10 diverse animal models. Type of experiment: functional, tissue-based. To be noted: Prostate gland.
On to `C[C@]12O[C@H](C[C@]1(O)CO)n1c3ccccc3c3c4c(c5c6ccccc6n2c5c31)CNC4=O`, for which the result was Active.

A further experiment addresses RAF proto-oncogene serine/threonine-protein kinase (Homo sapiens, UniProt P04049). The experiment in a line: Inhibition of c-Raf1 kinase.
Conditions: not given
Take `O=C1Nc2ncc(Br)cc2/C1=C/c1cccc(Oc2ccccc2)c1`: the IC50 (as a rule, the midpoint of a concentration-inhibition curve) is greater than 50 µM.
`O=C1Nc2ccccc2/C1=C1\CCc2cc(O)ccc21`: the IC50 was greater than 10 µM.
Same read-out and setting: as for `COc1ccccc1-c1cc(/C=C2\C(=O)Nc3ncc(Br)cc32)cc(Br)c1O` [GW442130X], the figure is 0.7 µM; as for `CS(=O)(=O)Nc1ccc(N/C=C2\C(=O)Nc3ccccc32)cc1` [GW278681X], greater than 10 µM.
Turning to `NS(=O)(=O)c1cccc(N/C=C2\C(=O)Nc3ccccc32)c1` [GW275616X], the IC50 is greater than 10 µM.
Compound `O=C1Nc2ccccc2/C1=C/Nc1ccc(-n2cncn2)cc1` [GW301789X] came in with an IC50 greater than 10 µM.
Take `Cn1cc(/C=C2\C(=O)Nc3cccnc32)c2ccccc21`: the half-inhibitory concentration (IC50) was greater than 12 µM.
In turn, `Cn1cc(/C=C2\C(=O)Nc3ncccc32)c2ccccc21` gave an IC50 of 7.2 µM.
Take `O=C1Nc2ccccc2/C1=C/Nc1ccc2[nH]c(=O)[nH]c2c1` [GW284408X]: the IC50 is greater than 10 µM.

The next experiment deals with T1, High affinity nerve growth factor receptor (Homo sapiens, UniProt P04629). The experiment in a line: (§1) Inhibition of receptor Tyrosine kinase A, TrkA (nerve growth factor receptor).
Conditions: not given
Target sequence in this assay (P04629 whole entry): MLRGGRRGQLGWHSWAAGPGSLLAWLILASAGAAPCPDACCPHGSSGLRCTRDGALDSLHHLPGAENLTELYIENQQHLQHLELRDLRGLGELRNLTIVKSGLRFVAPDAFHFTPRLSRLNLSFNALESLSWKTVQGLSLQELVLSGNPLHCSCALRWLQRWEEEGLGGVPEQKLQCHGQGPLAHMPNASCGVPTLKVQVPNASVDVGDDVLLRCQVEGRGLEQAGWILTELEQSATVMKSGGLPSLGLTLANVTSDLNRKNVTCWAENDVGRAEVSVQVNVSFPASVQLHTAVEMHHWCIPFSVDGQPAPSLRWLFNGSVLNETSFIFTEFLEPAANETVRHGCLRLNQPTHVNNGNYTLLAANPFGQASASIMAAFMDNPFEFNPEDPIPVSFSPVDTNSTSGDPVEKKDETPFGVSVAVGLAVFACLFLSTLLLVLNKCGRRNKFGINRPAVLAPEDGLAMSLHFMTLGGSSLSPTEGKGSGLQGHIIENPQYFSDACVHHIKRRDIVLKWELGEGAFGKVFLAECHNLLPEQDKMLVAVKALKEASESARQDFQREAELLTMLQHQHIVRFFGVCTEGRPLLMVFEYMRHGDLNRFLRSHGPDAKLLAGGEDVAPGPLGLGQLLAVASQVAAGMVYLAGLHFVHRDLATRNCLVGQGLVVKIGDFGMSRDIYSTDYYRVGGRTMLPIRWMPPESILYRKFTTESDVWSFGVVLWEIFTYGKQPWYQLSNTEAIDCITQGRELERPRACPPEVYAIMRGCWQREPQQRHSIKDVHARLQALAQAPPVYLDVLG
On to `O=C1Nc2ncc(Br)cc2/C1=C/c1cccc(Oc2ccccc2)c1`, for which the concentration for half-maximal inhibition (IC50) was 0.061 µM.
Compound `O=C1Nc2ccccc2/C1=C1\CCc2cc(O)ccc21` came in with a half-inhibitory concentration (IC50) of 0.006 µM.
Regarding `COc1ccccc1-c1cc(/C=C2\C(=O)Nc3ncc(Br)cc32)cc(Br)c1O` [GW442130X], the IC50 worked out at 0.008 µM.
Same read-out and setting: next, `CS(=O)(=O)Nc1ccc(N/C=C2\C(=O)Nc3ccccc32)cc1` [GW278681X]: 0.006 µM.
On the same count and under the same terms, next, `NS(=O)(=O)c1cccc(N/C=C2\C(=O)Nc3ccccc32)c1` [GW275616X]: 0.063 µM; `O=C1Nc2ccccc2/C1=C/Nc1ccc(-n2cncn2)cc1` [GW301789X]: 0.008 µM; `O=C1Nc2ccc3ncsc3c2/C1=C/Nc1ccc(S(=O)(=O)Nc2ccccn2)cc1`: 0.009 µM.
Compound `Cn1cc(/C=C2\C(=O)Nc3ncccc32)c2ccccc21` showed an IC50 of 0.012 µM.
Take `O=C1Nc2ccccc2/C1=C/Nc1ccc2[nH]c(=O)[nH]c2c1` [GW284408X]: the IC50 is 0.007 µM.
As for `O=C1Nc2ccc(I)cc2C1=Cc1cc(Br)c(O)c(Br)c1` [GW305074X], the IC50 is 4.7 µM.

The target in a further experiment is Cyclin-dependent kinase 2/cyclin A (Homo sapiens, UniProt P24941). The experiment in a line: Inhibition of Cyclin-dependent kinase 2 cyclin A. It counts as protein-complex assay.
Conditions: not given
`O=C1Nc2ncc(Br)cc2/C1=C/c1cccc(Oc2ccccc2)c1` had a 50% inhibitory concentration (IC50) greater than 50 µM.
In turn, `O=C1Nc2ccccc2/C1=C1\CCc2cc(O)ccc21` displayed an IC50 of 8 µM.
Compound `COc1ccccc1-c1cc(/C=C2\C(=O)Nc3ncc(Br)cc32)cc(Br)c1O` [GW442130X] registered an IC50 of 10.4 µM.
On to `CS(=O)(=O)Nc1ccc(N/C=C2\C(=O)Nc3ccccc32)cc1` [GW278681X], for which the IC50 came to 8 µM. The IC50 values of the last two compounds are within 1.5-fold of each other.
`NS(=O)(=O)c1cccc(N/C=C2\C(=O)Nc3ccccc32)c1` [GW275616X] returned an IC50 greater than 10 µM.
With `O=C1Nc2ccccc2/C1=C/Nc1ccc(-n2cncn2)cc1` [GW301789X], 7.2 µM corresponded to half-maximal inhibition (IC50). In other words, the single-digit micromolar range.
Consider `Cn1cc(/C=C2\C(=O)Nc3ncccc32)c2ccccc21`, for which the IC50 is greater than 6 µM.
`O=C1Nc2ccccc2/C1=C/Nc1ccc2[nH]c(=O)[nH]c2c1` [GW284408X]: the IC50 was found to be 2.5 µM. That is a single-digit micromolar value.

The next experiment deals with T1, High affinity nerve growth factor receptor. Described as §1.
Conditions: not given
Target sequence in this assay (P04629 33-796 limits assumed): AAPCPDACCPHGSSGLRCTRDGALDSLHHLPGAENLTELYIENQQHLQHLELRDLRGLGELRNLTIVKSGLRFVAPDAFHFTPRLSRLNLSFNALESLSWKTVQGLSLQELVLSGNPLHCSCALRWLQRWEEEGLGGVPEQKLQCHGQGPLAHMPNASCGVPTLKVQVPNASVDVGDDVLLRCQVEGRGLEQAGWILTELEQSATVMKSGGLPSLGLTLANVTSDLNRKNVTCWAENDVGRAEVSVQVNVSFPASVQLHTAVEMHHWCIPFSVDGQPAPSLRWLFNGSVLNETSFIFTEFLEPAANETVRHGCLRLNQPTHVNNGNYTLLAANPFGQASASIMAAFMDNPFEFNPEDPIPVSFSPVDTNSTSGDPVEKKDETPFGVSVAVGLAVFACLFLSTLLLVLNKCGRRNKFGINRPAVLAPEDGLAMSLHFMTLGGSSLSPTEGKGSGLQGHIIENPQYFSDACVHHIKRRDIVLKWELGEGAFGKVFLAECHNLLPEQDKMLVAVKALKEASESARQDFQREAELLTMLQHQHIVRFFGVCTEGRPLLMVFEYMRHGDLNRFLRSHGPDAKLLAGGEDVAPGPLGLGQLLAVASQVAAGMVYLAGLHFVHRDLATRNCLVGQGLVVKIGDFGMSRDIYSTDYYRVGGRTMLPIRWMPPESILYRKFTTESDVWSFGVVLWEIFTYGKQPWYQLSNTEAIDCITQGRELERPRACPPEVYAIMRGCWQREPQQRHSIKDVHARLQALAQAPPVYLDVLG
As to `C[C@]12O[C@H](C[C@]1(O)CO)n1c3ccccc3c3c4c(c5c6ccccc6n2c5c31)CNC4=O`, the result was Active.
